The text below walks through data of ChEMBL document CHEMBL1136947, “Exploration of novel thiobarbituric acid-, rhodanine- and thiohydantoin-based HIV-1 integrase inhibitors” (Bioorg Med Chem Lett, 2009).

Series [1] concerns the target T1, Human immunodeficiency virus type 1 integrase (Human immunodeficiency virus 1, UniProt Q7ZJM1). Briefly: Inhibition of HIV1 integrase using labelled oligonucleotide substrate by ELISA.
Series [2] concerns the target T1, Human immunodeficiency virus type 1 integrase. Briefly: Inhibition of HIV1 integrase 3'-processing activity using labelled oligonucleotide substrate by ELISA.
Series [3] has as its system Human immunodeficiency virus 1. Briefly: Antiviral activity against HIV1 3B infected in human MT4 cells assessed as reduction of virus-induced cytopathogenicity by MTT assay. Format: functional, organism-based. As to conditions: Human immunodeficiency virus 1, 3B.
Series [4] in a line: Cytotoxicity against human MT4 cells by MTT method. It is filed as cell-based.
Series [5] can be described thus: Therapeutic index, ratio of CC50 for human MT4 cells to EC50 for HIV1 3B. Format: cell-based. The following applies: read-out: Ratio CC50/EC50.
In series [6] the target is T1, Human immunodeficiency virus type 1 integrase. Briefly: Inhibition of HIV1 integrase strand transfer activity using labelled oligonucleotide substrate by ELISA.

T1 sequence (Q7ZJM1 whole entry): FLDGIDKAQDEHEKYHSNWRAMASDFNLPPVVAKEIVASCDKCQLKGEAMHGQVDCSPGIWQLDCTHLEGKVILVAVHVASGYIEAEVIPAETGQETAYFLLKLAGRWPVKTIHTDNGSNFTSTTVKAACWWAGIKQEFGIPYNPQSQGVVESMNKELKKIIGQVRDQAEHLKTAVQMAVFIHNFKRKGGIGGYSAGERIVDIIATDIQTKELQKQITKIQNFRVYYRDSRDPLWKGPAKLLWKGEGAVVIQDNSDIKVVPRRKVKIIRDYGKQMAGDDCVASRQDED

On to `COc1cc(C(=O)O)cc(OC)c1-c1ccc(C=C2C(=O)NC(=S)NC2=O)o1`, for which the IC50 in series [1] is 167 µM; in series [2], more than 250 µM. Further, the EC50 in series [3] is more than 61.1 µM. For the same molecule, the CC50 in series [4] was found to be 61.1 µM.
For the molecule `Cc1nnc(C(=O)NC(C)(C)c2nc(C(=O)NCc3ccc(F)cc3)c(O)c(=O)n2C)o1`, the EC50 in series [3] turned out to be 0.0064 µM. In addition, it took 143 µM to reach half-maximal cytotoxicity in series [4] (CC50).
Regarding `O=C1NC(=S)NC(=O)C1=Cc1ccc(-c2ccc(Cl)c(C(=O)O)c2)o1`, the results for the IC50 in series [1] and in series [2] were 41.7 µM and 12.9 µM, respectively. Moreover, the EC50 in series [3] is more than 152 µM. Moreover, the CC50 in series [4] is 152 µM.
As to `O=C1NC(=S)S/C1=C\c1ccc(-c2cc(C(=O)O)cc(O)c2O)o1`, the selectivity ratio in series [5] is 7. Besides, the results for the IC50 in series [1], in series [6] and in series [2] were 15.5 µM, 164 µM and 22.3 µM, respectively. In series [3], the EC50 worked out at 18 µM. For the same molecule, in series [4], the CC50 came to 131 µM.
For the molecule `COc1cc(-c2ccc(C(=O)O)c(O)c2)oc1/C=C1\SC(=S)NC1=O`, the IC50 in series [1] and in series [2] was more than 250 µM each time. Besides, in series [3], the EC50 stood at 112 µM. In series [4], this molecule registered a CC50 of more than 125 µM.
On to `Cc1ccc(C(=O)O)cc1-c1ccc(C=C2C(=O)NC(=S)NC2=O)o1`, for which the IC50 in series [1] stood at 46.4 µM; in series [2], 25.4 µM. For the same molecule, in series [3], the EC50 is more than 159 µM. The same molecule registered a CC50 in series [4] of 159 µM.
For `O=C1NC(=S)NC(=O)C1=Cc1ccc(-c2ccc(C(=O)O)c(O)c2)o1`, the selectivity ratio in series [5] was determined as 2. Moreover, the IC50 was 8.94 µM in series [1], 69.2 µM in series [6] and 2.74 µM in series [2]. For the same molecule, the EC50 in series [3] worked out at 30 µM. The same molecule registered a CC50 in series [4] of 60 µM.
For `O=C1NC(=S)NC(=O)C1=Cc1ccc(-c2cccc(C(=O)O)c2O)o1`, the IC50 in series [1] and in series [2] was more than 250 µM in each case. Further, the EC50 in series [3] is more than 140 µM. This molecule also came in with a CC50 in series [4] of 140 µM.
Regarding `Cc1cc(-c2ccc(C(=O)O)c(O)c2)oc1/C=C1\SC(=S)NC1=O`, the IC50 in series [1] came out at 158 µM; in series [2], 135 µM.
As to `Cc1cc(-c2ccc(C(=O)O)c(O)c2)oc1C=C1C(=O)NC(=S)NC1=O`, the figures for the IC50 in series [1] and in series [2] were 90.9 µM and 125 µM, respectively. The EC50 in series [3] is more than 125 µM. The molecule also came in with a CC50 in series [4] of more than 125 µM.
As for `O=C1NC(=S)NC(=O)C1=Cc1ccc(-c2cc(C(=O)O)cc3c2OCO3)o1`, the IC50 is 56.5 µM in series [1] and 71.6 µM in series [2]. Moreover, the EC50 in series [3] is more than 125 µM. In series [4], this molecule gave a CC50 of more than 125 µM.
In the case of `O=C1NC(=S)N/C1=C\c1ccc(-c2ccc(C(=O)O)c(O)c2)o1`, the IC50 in series [1] came out at 107 µM; in series [2], 74 µM. The EC50 in series [3] was more than 193 µM. In series [4], this molecule yielded a CC50 of 193 µM.
In the case of `O=C1NC(=S)NC(=O)C1=Cc1ccc(-c2ccc(F)cc2C(=O)O)o1`, the IC50 in series [1] came to 184 µM; in series [2] it was 47.1 µM. The EC50 in series [3] was more than 165 µM. The molecule further gave a CC50 in series [4] of 165 µM.
As for `O=C1NC(=S)S/C1=C\c1ccc(-c2ccc(Cl)c(C(=O)O)c2)o1`, the IC50 in series [1] and in series [2] was more than 250 µM throughout. Besides, in series [3], the EC50 was more than 155 µM. Besides, the CC50 in series [4] came out at 155 µM.
As to `COc1cc(-c2ccc(C=C3C(=O)NC(=S)NC3=O)o2)c(Cl)cc1C(=O)O`, the figures for the IC50 in series [1] and in series [2] were 43.2 µM and 35.3 µM, respectively. Further, the EC50 in series [3] was more than 100 µM. This molecule also registered a CC50 in series [4] of 100 µM.
As for `O=C1NC(=S)S/C1=C\c1ccc(-c2ccc(C(=O)O)c(O)c2)o1`, in series [5], the selectivity ratio was determined as 2. Besides, the IC50 is 182 µM in series [1], 97.7 µM in series [6] and more than 250 µM in series [2]. For the same molecule, in series [3], the EC50 turned out to be 30.1 µM. In addition, the CC50 in series [4] is more than 72 µM.
As for `Cc1c(-c2ccc(C=C3C(=O)NC(=S)NC3=O)o2)cccc1[N+](=O)[O-]`, the results for the IC50 in series [1] and in series [2] were 58.4 µM and 40.8 µM, respectively. In addition, the EC50 in series [3] is more than 17.9 µM. The same molecule displayed a CC50 in series [4] of 17.9 µM.
As to `O=C1NC(=S)N/C1=C\c1ccc(-c2ccc(O)c(C(=O)O)c2)o1`, in series [5], the selectivity ratio was 2. In addition, the IC50 was 50.9 µM in series [1], more than 250 µM in series [6] and more than 250 µM in series [2]. Besides, the EC50 in series [3] worked out at 95.2 µM. The half-maximal cytotoxic concentration (CC50) in series [4] amounted to 152 µM.
Regarding `O=C1NC(=S)NC(=O)C1=Cc1ccc(-c2ccc(O)c(C(=O)O)c2)o1`, the results for the IC50 in series [1] and in series [2] were 33.4 µM and 53 µM, respectively. Also, the EC50 in series [3] is more than 222 µM. The molecule also showed a CC50 in series [4] of 222 µM.
With `O=C1NC(=S)NC(=O)C1=Cc1ccc(-c2cc(C(=O)O)cc(O)c2O)o1`, the selectivity ratio in series [5] amounted to 3. Moreover, the IC50 is 5.06 µM in series [1], more than 250 µM in series [6] and 5.79 µM in series [2]. Moreover, the EC50 in series [3] worked out at 54.7 µM. In addition, the midpoint of cytotoxicity in series [4], the CC50, lay at 138 µM.
As for `COc1cc(-c2ccc(/C=C3\SC(=S)NC3=O)o2)c(Cl)cc1C(=O)O`, the IC50 in series [1] and in series [2] was more than 250 µM each time. The EC50 in series [3] was more than 143 µM. In series [4], this molecule displayed a CC50 of 143 µM.
Consider `Cc1cc(-c2ccc(C(=O)O)c(O)c2)oc1/C=C1\NC(=S)NC1=O`, for which the IC50 in series [1] and in series [2] was more than 250 µM throughout.
